Tests used:
[1] = test system: CD8^+ T cells producing IFN-γ; assay: Tumor antigen-specific T cell immune response (IFN-γ producing spleen CD8+ T cells); assay type: in vivo, Apc^Min/+ mice; conditions: in the presence of the tumor antigen, vs control samples
Source text: All animals were housed in Association for Assessment and Accreditation of Laboratory Animal Care-approved facilities in static microisolator cages. Testing confirmed the mice were pathogen-free and there was no evidence of murine Helicobacter spp. by culture or PCR. Apc^Min/+ mice on a C57BL/6J background were originally obtained from the Jackson Laboratory (Bar Harbor, Me.) and bred in-house to wild-type (wt) C57BL/6J mice to generate Apc^Min/+. 17 week old Apc^Min/+ mice or matched wild-type controls were treated with either vehicle alone, or BBI608 at 200 mg/kg daily by oral gavage (p.o., q.d.) for 4 consecutive days (n=4/group). Body weight and clinical signs were monitored throughout the course of the treatment. On treatment day 4, the animals were sacrificed 4 hours after the last dose and the tumors in the Apc^Min/+ small intestine or a piece of normal intestine, from wild type controls, were harvested.
Spleen tissues were collected from the above APC^Min/+ mice at the time of tumor harvesting. CD8^+ T cells were separated using a CD8^+ T cells isolation kit according to the manufacturer's protocol (STEMCELL Technology). […] Intracellular IFN-γ was then stained with Alexa-647 labeled rat anti-mouse IFN-γ antibody (1:100, BD) and CD8^+ T cells producing IFN-γ were analyzed under the Zeiss fluorescence microscope described above.

IDO1 = IDO1 protein levels in SKOV3 cells; assay type: cell-based
IL-6 = IL-6 protein production by HeLa cells; assay type: cell-based; conditions: different concentrations
CD44 = CD44 protein expression in ovarian cancer xenograft model (SKOV-3); assay type: in vivo, mouse; conditions: SKOV-3 xenograft, 0, 1, 2, 4, 8, 16, or 24 hours after treatment
Description: At the end of treatment, tumors were harvested from euthanized mice. Part of the dissected tumors were fixed overnight in 3.7% or 10% neutral buffered formaldehyde at 4° C., and then paraffin embedded, cut to 4-5 micron sections, and affixed onto positively charged slides. After baking and deparaffinization, the slides with tumor or control tissues were incubated in a 10 mM sodium citrate solution pH=6.0 for antigen retrieval at 98° C. Afterwards, slides were probed with primary antibodies against P-STAT3 (Tyr705) (rabbit, Cell Signaling, 1:100), β-CATENIN (mouse, Santa Cruz, 1:400), IL-6 (mouse, Novus Biol., 1:100), PD-L1 (rabbit, Cell Signaling, 1:100), PCNA (mouse, Santa Cruz, 1:5000), CD8a (rabbit, Santa Cruz, 1:30), CD44 (rat, BioLegend, 1:50), CD44 (mouse, Cell Signaling, 1:100), CD133 (mouse, Miltenyi, 1:100), IDO1 (mouse, Millipore 1:100), or/and CD3 (rabbit, Abcam, 1:100) at 4° C. overnight, and then AlexaFluor fluorescent dye-conjugated secondary antibodies (Invitrogen, 1:300 or 1:500) at room temperature for one hour. After mounting in ProLong mounting medium containing DAPI (Invitrogen), the slides were examined on a Zeiss Axio Imager M2 upright fluorescence microscope with a 20× objective and analyzed with Zen software.

## CC(=O)c1cc2c(o1)C(=O)c1ccccc1C2=O [BBI608, 2-acetylnaphtho[2,3-b]furan-4,9-dione]
[1]
  percentage of CD8^+ T cells producing INF-γ: higher percentage
IDO1; 8 or 24 hours
  IDO1 protein levels: reduced
IDO1; 3 hours
  IDO1 protein levels: reduced
IL-6
  IL-6 protein production: downregulated
CD44
  CD44 protein expression: inhibited CD44 protein expression in a time-dependent manner
